Here are results for 4 compounds from BindingDB's records for patent US20230303547 (Mission Therapeutics, 2023).

Each structure is given as a SMILES string.

The test concerns the target T1, Ubiquitin carboxyl-terminal hydrolase 30 (Homo sapiens, UniProt Q70CQ3).
T1 sequence (Q70CQ3 whole entry): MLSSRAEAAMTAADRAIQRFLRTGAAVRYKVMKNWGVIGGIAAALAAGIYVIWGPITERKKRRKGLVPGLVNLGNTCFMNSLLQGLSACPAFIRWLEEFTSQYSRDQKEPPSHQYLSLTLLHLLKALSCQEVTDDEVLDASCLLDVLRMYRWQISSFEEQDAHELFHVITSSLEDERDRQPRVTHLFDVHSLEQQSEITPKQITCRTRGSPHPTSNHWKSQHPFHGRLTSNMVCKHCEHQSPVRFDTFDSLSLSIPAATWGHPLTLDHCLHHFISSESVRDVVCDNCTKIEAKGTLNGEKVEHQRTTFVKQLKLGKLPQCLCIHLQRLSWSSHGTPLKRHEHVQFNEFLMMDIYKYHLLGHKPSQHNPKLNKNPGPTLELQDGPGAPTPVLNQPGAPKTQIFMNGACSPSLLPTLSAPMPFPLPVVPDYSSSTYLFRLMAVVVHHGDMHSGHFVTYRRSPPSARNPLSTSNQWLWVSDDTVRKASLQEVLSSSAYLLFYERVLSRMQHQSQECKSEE
The test can be described thus: USP30 Biochemical IC50 Assay. Here is the method:
Dilution plates were prepared at 21 times the final concentration (2100 µM for a final concentration of 100 µM) in 50% DMSO in a 96-well polypropylene V-bottom plate (Greiner #651201). A typical 8-point dilution series would be 100, 30, 10, 3, 1, 0.3, 0.1, 0.03 µM final. Reactions were performed in duplicate in black 384 well plates (small volume, Greiner 784076) in a final reaction volume of 21 µl. Either 1 µl of 50% DMSO or diluted compound was added to the plate. USP30 (Boston Biochem #E582) was diluted in reaction buffer (40 mM Tris, pH 7.5, 0.005% Tween 20, 0.5 mg/ml BSA, 5 mM beta-mercaptoethanol) to achieve a final assay concentration of 4 nM, and 10 µl of diluted USP30 was added to the compound. Enzyme and compound were incubated for 30 min at room temp. Reactions were initiated by the addition of 50 nM of TAMRA labelled peptide linked to ubiquitin via an iso-peptide bond as fluorescence polarisation substrate. Reactions were read immediately after addition of substrate and following a 2-hour incubation at room temperature. Readings were performed on a Pherastar Plus (BMG Labtech). λ Excitation 540 nm; λ Emission 590 nm.
As to `COc1ccc(C#N)cc1-c1cnc(C(=O)N[C@@H]2C[C@@H](C)N(C#N)C2)o1` [US20230303547, Example 4], half-maximal inhibition (IC50) required 2 nM. As to `COC[C@@H]1C[C@@H](NC(=O)c2ncc(-c3cc(C#N)ccc3OC3CC3)o2)CN1C#N` [US20230303547, Example 2], half-maximal inhibition (IC50) was put at 3 nM.

Compound `C[C@@H]1C[C@@H](NC(=O)c2ncc(-c3cc(C#N)ccc3OC3CC3)o2)CN1C#N` [US20230303547, Example 1] had an IC50 of 3 nM. In turn, `N#Cc1ccc(OC2CC2)c(-c2cnc(C(=O)N[C@@H]3C[C@@H](CF)N(C#N)C3)o2)c1` [US20230303547, Example 3] had an IC50 of 1 nM.

As usually defined, the IC50 is the concentration that gives 50% inhibition.
